# Experimental data: patent US20260185054A1, “METHOD FOR PRODUCING METABOLICALLY ACTIVATED LIVER ORGANOID, COMPOSITION, AND METHOD FOR EVALUATING TEST SUBSTANCE” (JSR CORPORATION, priority 2023, published 2026)
# Key:
# Assay type in all cases: cell-based, human
# liver organoid [1] = experiment: Gluconeogenesis of liver organoid (glucose quantified in medium supernatant, Glucose-Glo Assay); settings: for gluconeogenesis of the liver organoid: glucose corrected by ATP, donor 9
# Protocol: Subsequently, the medium was replaced with a Gluconogenesis assay medium having the composition shown in Table 4 below (hereinafter sometimes referred to as a “GM medium”), and incubation was performed for 24 hours in an environment of 37° C., 1 atm, and a CO2 concentration of 5 v/v %. The supernatant of the medium after the incubation was collected, and glucose and urea included in the medium were quantified. The measurement results will be described later.
# The glucose was measured according to a protocol of the manufacturer using a Glucose-Glo™ Assay (Promega, catalog number: J6022). […]
# In addition, the liver organoid after the incubation were washed three times with Fasting Medium (hereinafter sometimes referred to as an “FM medium”) having the composition shown in Table 3, FM was added thereto at 500 μL/well, and incubation was performed for 18 hours in an environment of 37° C., 1 atm, and a CO2 concentration of 5 v/v %.
# Subsequently, the medium was replaced with a Gluconogenesis assay medium having the composition shown in Table 4 (hereinafter sometimes referred to as a “GM medium”), and incubation was performed for 24 hours in an environment of 37° C., 1 atm, and a CO2 concentration of 5 v/v %. The supernatant of the medium after the incubation was collected, and glucose and urea included in the medium were quantified. The quantification of glucose and urea was performed in the same manner as in Experimental Example 1. The measurement results will be described later.
# The medium of the liver organoid, which had been produced in the same manner as in Experimental Example 2 and expansion-cultured for 2 weeks, was replaced with a differentiation medium (hereinafter sometimes referred to as a “DM medium”) having the composition shown in Table 6 below at 500 μL/well, and incubated for 2 weeks in an environment of 37° C., 1 atm, and a CO2 concentration of 5 v/v %. The medium was replaced every 7 days.
# Subsequently, gluconeogenesis, urea production, albumin production, and bile acid production of the liver organoid were evaluated in the same manner as in Experimental Example 2. The results of the amount of glucose produced and the amount of urea produced will be described later.
# [2] = test system: gluconeogenesis-related genes, urea production-related genes and CYP genes in liver organoid; experiment: Quantitative real-time PCR of liver organoids, A83-01 removed from differentiation medium; settings: liver organoids cultured in DM medium from which A83-01 had been removed, versus DM medium
# Description: A liver organoid was produced in the same manner as in Experimental Example 3, except that the transforming growth factor β receptor antagonist (A83-01) was removed from the differentiation medium (DM medium), and the expression of the gluconeogenesis-related genes, the urea production-related genes, and the CYP genes was examined by quantitative real-time PCR.
# (§1) A total RNA was extracted from cells using Direct-zol RNA Kit micro (Zymo Research, catalog number: #R2063), and a reverse transcription reaction was carried out using a PrimeScript RT Master Mix (Takara Bio, catalog number: RR036A) to obtain a cDNA. Subsequently, quantitative real-time PCR was performed using LightCycler 480 System (Roche) and using TB Green Premix Ex Taq II (Takara Bio, catalog number: #RR820A). The cDNA of the primary human hepatocyte was diluted to create a calibration curve.
# liver organoid [3] = experiment: Urea production of liver organoid (Quantichrom Urea Assay Kit); settings: metformin 1 mM or 10 mM added to MM, FM and GM medium; organoid cultured in DM medium
# Protocol: The urea was measured according to a protocol of the manufacturer using Quantichrom Urea Assay Kit (Bioassay Systems, catalog number: DIUR-100).
# [4] = test system: gluconeogenesis-related genes (FBP1, PCK1) in liver organoid; experiment: Quantitative real-time PCR of liver organoids, gluconeogenesis medium composition changed; settings: 1 μM insulin in GM medium with 200 pg/mL glucagon and 400 ng/mL cortisol; FM 6 hours, GM 4 hours; donor 2
# Protocol: A GM medium obtained by removing glucagon and cortisol from the gluconeogenesis medium (GM medium) having the composition shown in Table 4, and further adding the components shown in Table 15 was prepared. Liver organoids were produced in the same manner as in Experimental Example 3, except that the incubation was performed for 6 hours after the addition of the FM medium and then the incubation was performed for 4 hours after the addition of the GM medium. In addition, the donor of the primary human hepatocyte used for the production of the liver organoid was a donor 2.
# as §1, with “Subsequently, the expression of various genes in each of the produced liver organoids was analyzed by quantitative real-time PCR (qPCR). Specifically, a total” for “A total”
# [5] = factor included in gluconeogenesis medium (Tables 17, 18)
# [6] = factor included in differentiation medium at varied concentrations (Tables 9, 10)
Molecule,gluconeogenesis of the liver organoid (liver organoid [1]; [5]),gluconeogenesis of the liver organoid (liver organoid [1]; [6]),further results
glucagon: hormone that increases blood glucose level through glycogenolysis and gluconeogenesis in the liver (Sigma G2044),improved,,
Cc1cccc(-c2nn(C(=S)Nc3ccccc3)cc2-c2ccnc3ccccc23)n1 [A83-01],,,"expression of the gluconeogenesis-related genes, the urea production-related genes, and the CYP genes [2]: decreased"
"CN(C)C(=N)N=C(N)N [metformin, reference compound]",,,"gluconeogenesis in the liver organoid (liver organoid [1]; metformin 1 mM or 10 mM added to MM, FM and GM medium, organoid cultured in DM medium): suppressed; urea production in the liver organoid (liver organoid [3]): suppressed"
insulin: insulin added at 1 μM to the gluconeogenesis medium,,,expression of the gluconeogenesis-related genes [4]: suppresses
growth hormone: hormone secreted from the anterior pituitary; growth hormone receptor agonist (PeproTech 100-40),improved,improved in a manner dependent on the concentrations of added factors,
"C[C@]12CCC(=O)C=C1CC[C@@H]1[C@@H]2[C@@H](O)C[C@@]2(C)[C@H]1CC[C@]2(O)C(=O)CO [cortisol, reference compound]",improved,improved in a manner dependent on the concentrations of added factors,
"prolactin: hormone from prolactin-secreting cells of the anterior pituitary; prolactin receptor agonist (PeproTech 100-07) (protein, UniProt P01236 29-227, looked up) Prolactin: LPICPGGAARCQVTLRDLFDRAVVLSHYIHNLSSEMFSEFDKRYTHGRGFITKAINSCHTSSLATPEDKEQAQQMNQKDFLSLIVSILRSWNEPLYHLVTEVRGMQEAPEAILSKAVEIEEQTKRLLEGMELIVSQVHPETKENEIYPVWSGLPSLQMADEESRLSAYYNLLHCLRRDSHKIDNYLKLLKCRIIHNNNC",improved,improved in a manner dependent on the concentrations of added factors,
